Results reported in patent US20250312352A1, “GLP-1R MODULATING COMPOUNDS” (Gilead Sciences, Inc., priority 2021, published 2025).
Values belong to the molecule of their own block, whether it stands above or below them.

Biological target: T1, GLP-1R (Homo sapiens, UniProt P43220)
T1 construct: host or cells: CHO cells
Test: GLP-1R activation cAMP assay (Assay 1 or Assay 2)
Type: cell-based
Conditions: cAMP increase in CHO cells stably expressing GLP-1R; compounds run on one of the two cAMP assays
Method in brief: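 CHO cells stably expressing human GLP-1R were incubated 1 h in HBSS/20 mM HEPES/0.1% BSA, then exposed to 10-point agonist dilutions for 30 min at 37 °C. cAMP increase was measured with an HTRF Gs dynamic kit; EC50 from sigmoidal fit of response versus log concentration.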

T1 sequence (P43220 24-463): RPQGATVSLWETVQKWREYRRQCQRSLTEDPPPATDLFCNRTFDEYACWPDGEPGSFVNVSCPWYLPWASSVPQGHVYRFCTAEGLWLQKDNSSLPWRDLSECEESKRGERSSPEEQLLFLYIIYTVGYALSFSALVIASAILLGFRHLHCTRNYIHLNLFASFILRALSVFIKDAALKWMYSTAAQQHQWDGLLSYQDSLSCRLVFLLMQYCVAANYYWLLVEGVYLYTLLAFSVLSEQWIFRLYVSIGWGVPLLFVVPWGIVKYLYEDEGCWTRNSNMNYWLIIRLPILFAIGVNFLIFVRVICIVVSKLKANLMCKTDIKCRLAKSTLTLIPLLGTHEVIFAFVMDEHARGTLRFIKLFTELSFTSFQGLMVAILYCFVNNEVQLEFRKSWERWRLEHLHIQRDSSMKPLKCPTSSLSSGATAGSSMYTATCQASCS

Structure (SMILES): COc1nnc(COc2cccc(-c3cc(F)c(Cc4nc5ccc(C(=O)O)cc5n4CC4(CF)CC4)c(F)c3F)n2)s1 [Example 271, 1-((1-(fluoromethyl)cyclopropyl)methyl)-2-(2,3,6-trifluoro-4-(6-((5-methoxy-1,3,4-thiadiazol-2-yl)methoxy)pyridin-2-yl)benzyl)-1H-benzo[d]imidazole-6-carboxylic acid]
- EC50: 0.897 nM

Structure (SMILES): N#CC1(NC(=O)c2ccc(COc3cccc(-c4cc(F)c(Cc5nc6c(F)cc(C(=O)O)cc6n5C[C@@H]5CCO5)cc4F)n3)cn2)CC1 [Example 197, (S)-2-(4-(6-((6-((1-cyanocyclopropyl)carbamoyl)pyridin-3-yl)methoxy)pyridin-2-yl)-2,5-difluorobenzyl)-4-fluoro-1-(oxetan-2-ylmethyl)-1H-benzo[d]imidazole-6-carboxylic acid]
- EC50: 0.08 nM

Structure (SMILES): Cn1cc(CNC(=O)c2cc(Cl)c(COc3cccc(-c4cc(F)c(Cc5nc6ccc(C(=O)O)cc6n5C[C@@H]5CCO5)cc4F)n3)cn2)cn1 [Example 193, (S)-2-(4-(6-((4-chloro-6-(((1-methyl-1H-pyrazol-4-yl)methyl)carbamoyl)pyridin-3-yl)methoxy)pyridin-2-yl)-2,5-difluorobenzyl)-1-(oxetan-2-ylmethyl)-1H-benzo[d]imidazole-6-carboxylic acid]
- EC50: 0.22 nM

Structure (SMILES): N#CC1(NC(=O)c2cc(Cl)c(COc3cccc(-c4cc(F)c(Cc5nc6c(F)cc(C(=O)O)cc6n5C[C@@H]5CCO5)cc4F)n3)cn2)CC1 [Example 185, (S)-2-(4-(6-((4-chloro-6-((1-cyanocyclopropyl)carbamoyl)pyridin-3-yl)methoxy)pyridin-2-yl)-2,5-difluorobenzyl)-4-fluoro-1-(oxetan-2-ylmethyl)-1H-benzo[d]imidazole-6-carboxylic acid]
- EC50: 0.08 nM

Structure (SMILES): O=C(O)c1ccc2nc(Cc3cc(F)c(-c4cccc(OCc5cnc(C(=O)NC6(C(F)F)CC6)cc5Cl)n4)cc3F)n(C[C@@H]3CCO3)c2c1 [Example 186, (S)-2-(4-(6-((4-chloro-6-((1-(difluoromethyl)cyclopropyl)carbamoyl)pyridin-3-yl)methoxy)pyridin-2-yl)-2,5-difluorobenzyl)-1-(oxetan-2-ylmethyl)-1H-benzo[d]imidazole-6-carboxylic acid]
- EC50: 0.91 nM

Structure (SMILES): Cn1cc(C#Cc2cnc(COc3cccc(-c4cc(F)c(Cc5nc6c(F)cc(C(=O)O)cc6n5CC5(CF)CC5)cc4F)n3)c(F)c2)cn1 [Example 274, 2-(2,5-difluoro-4-(6-((3-fluoro-5-((1-methyl-1H-pyrazol-4-yl)ethynyl)pyridin-2-yl)methoxy)pyridin-2-yl)benzyl)-4-fluoro-1-((1-(fluoromethyl)cyclopropyl)methyl)-1H-benzo[d]imidazole-6-carboxylic acid]
- EC50: 0.196 nM

Structure (SMILES): CC(C)(C)OC(=O)N[C@H]1C[C@@H](n2cc(-c3ccc(COc4cccc(-c5cc(F)c(Cc6nc7ccc(C(=O)O)cc7n6C[C@@H]6CCO6)cc5F)n4)c(F)c3)nn2)C1 [Example 219, 2-(4-(6-((4-(1-((1s,3s)-3-((tert-butoxycarbonyl)amino)cyclobutyl)-1H-1,2,3-triazol-4-yl)-2-fluorobenzyl)oxy)pyridin-2-yl)-2,5-difluorobenzyl)-1-(((S)-oxetan-2-yl)methyl)-1H-benzo[d]imidazole-6-carboxylic acid]
- EC50: 0.85 nM

Structure (SMILES): Cn1nc(COc2cccc(-c3cc(F)c(Cc4nc5ccc(C(=O)O)cc5n4C[C@@H]4CCO4)cc3F)n2)cc1C(N)=O [Example 206, (S)-2-(4-(6-((5-carbamoyl-1-methyl-1H-pyrazol-3-yl)methoxy)pyridin-2-yl)-2,5-difluorobenzyl)-1-(oxetan-2-ylmethyl)-1H-benzo[d]imidazole-6-carboxylic acid]
- EC50: 43.3 nM

Structure (SMILES): COCCn1c(Cc2cc(F)c(-c3cccc(OCc4ccc(-c5cnn(Cc6cccnc6)c5)cc4F)n3)cc2F)nc2ccc(C(=O)O)cc21 [Example 237, 2-[[2,5-difluoro-4-[6-[[2-fluoro-4-[1-(3-pyridylmethyl)pyrazol-4-yl]phenyl]methoxy]-2-pyridyl]phenyl]methyl]-3-(2-methoxyethyl)benzimidazole-5-carboxylic acid]
- EC50: 3.68 nM

Structure (SMILES): O=C(O)c1ccc2nc(Cc3cc(F)c(-c4cccc(OCc5ccc(-n6cnc(C7CC7)n6)nc5)n4)cc3F)n(C[C@@H]3CCO3)c2c1 [Example 211, 2-[[4-[6-[[6-(3-cyclopropyl-1,2,4-triazol-1-yl)-3-pyridyl]methoxy]-2-pyridyl]-2,5-difluoro-phenyl]methyl]-3-[[(2S)-oxetan-2-yl]methyl]benzimidazole-5-carboxylic acid]
- EC50: 0.51 nM

Structure (SMILES): O=C(O)c1cc(F)c2nc(Cc3cc(F)c(-c4ccc(F)c(OCc5ncc(C(F)(F)F)s5)n4)cc3F)n(C[C@@H]3CCO3)c2c1 [Example 313, (S)-2-(2,5-difluoro-4-(5-fluoro-6-((5-(trifluoromethyl)thiazol-2-yl)methoxy)pyridin-2-yl)benzyl)-4-fluoro-1-(oxetan-2-ylmethyl)-1H-benzo[d]imidazole-6-carboxylic acid]
- EC50: 0.032 nM

Structure (SMILES): NC(=O)c1cc(F)c(COc2cccc(-c3cc(F)c(Cc4nc5c(F)cc(C(=O)O)cc5n4C[C@@H]4CCO4)cc3F)n2)cn1 [Example 241, (S)-2-(4-(6-((6-carbamoyl-4-fluoropyridin-3-yl)methoxy)pyridin-2-yl)-2,5-difluorobenzyl)-4-fluoro-1-(oxetan-2-ylmethyl)-1H-benzo[d]imidazole-6-carboxylic acid]
- EC50: 0.12 nM

Structure (SMILES): O=C(O)c1ccc2nc(Cc3cc(F)c(-c4cccc(OCc5cc(C(F)(F)F)cs5)n4)cc3F)n(C[C@@H]3CCO3)c2c1 [Example 55, (S)-2-(2,5-difluoro-4-(6-((4-(trifluoromethyl)thiophen-2-yl)methoxy)pyridin-2-yl)benzyl)-1-(oxetan-2-ylmethyl)-1H-benzo[d]imidazole-6-carboxylic acid]
- EC50: 0.44 nM

Structure (SMILES): O=C(O)c1ccc2nc(Cc3cc(F)c(-c4cccc(OCc5ccc(-c6cnn(C7COC7)c6)cc5F)n4)cc3F)n(C[C@@H]3CCO3)c2c1 [Example 164, (S)-2-(2,5-difluoro-4-(6-((2-fluoro-4-(1-(oxetan-3-yl)-1H-pyrazol-4-yl)benzyl)oxy)pyridin-2-yl)benzyl)-1-(oxetan-2-ylmethyl)-1H-benzo[d]imidazole-6-carboxylic acid]
- EC50: 0.1 nM

Structure (SMILES): CNC(=O)c1cc(Cl)c(COc2cccc(-c3cc(F)c(Cc4nc5c(F)cc(C(=O)O)cc5n4CC4(CF)CC4)c(F)c3F)n2)cn1 [Example 398, 2-(4-(6-((4-chloro-6-(methylcarbamoyl)pyridin-3-yl)methoxy)pyridin-2-yl)-2,3,6-trifluorobenzyl)-4-fluoro-1-((1-(fluoromethyl)cyclopropyl)methyl)-1H-benzo[d]imidazole-6-carboxylic acid]
- EC50: 0.017 nM

Continued, values first:

- EC50: 23.2 nM
Structure (SMILES): O=C(O)c1ccc2nc(Cc3cc(F)c(-c4cccc(OCc5nccn5C(F)F)n4)cc3F)n(C[C@@H]3CCO3)c2c1 [Example 19, (S)-2-(4-(6-((1-(difluoromethyl)-1H-imidazol-2-yl)methoxy)pyridin-2-yl)-2,5-difluorobenzyl)-1-(oxetan-2-ylmethyl)-1H-benzo[d]imidazole-6-carboxylic acid]

- EC50: 8.46 nM
Structure (SMILES): Cn1nc(COc2cccc(-c3cc(F)c(Cc4nc5ccc(C(=O)O)cc5n4C[C@@H]4CCO4)cc3F)n2)cc1CC#N [Example 37, (S)-2-(4-(6-((5-(cyanomethyl)-1-methyl-1H-pyrazol-3-yl)methoxy)pyridin-2-yl)-2,5-difluorobenzyl)-1-(oxetan-2-ylmethyl)-1H-benzo[d]imidazole-6-carboxylic acid]

- EC50: 8.29 nM
Structure (SMILES): N#Cc1nc(COc2cccc(-c3cc(F)c(Cc4nc5ccc(C(=O)O)cc5n4C[C@@H]4CCO4)cc3F)n2)cs1 [Example 170, (S)-2-(4-(6-((2-cyanothiazol-4-yl)methoxy)pyridin-2-yl)-2,5-difluorobenzyl)-1-(oxetan-2-ylmethyl)-1H-benzo[d]imidazole-6-carboxylic acid]

- EC50: 5.99 nM
Structure (SMILES): O=C(O)c1ccc2nc(Cc3cc(F)c(-c4cccc(OCc5cc[nH]n5)n4)cc3F)n(C[C@@H]3CCO3)c2c1 [Example 181, (S)-2-(4-(6-((1H-pyrazol-3-yl)methoxy)pyridin-2-yl)-2,5-difluorobenzyl)-1-(oxetan-2-ylmethyl)-1H-benzo[d]imidazole-6-carboxylic acid]

- EC50: 0.246 nM
Structure (SMILES): CC1(C#Cc2nnc(COc3cccc(-c4cc(F)c(Cc5nc6ccc(C(=O)O)cc6n5C[C@@H]5CCO5)cc4F)n3)s2)CC1 [Example 321, (S)-2-(2,5-difluoro-4-(6-((5-((1-methylcyclopropyl)ethynyl)-1,3,4-thiadiazol-2-yl)methoxy)pyridin-2-yl)benzyl)-1-(oxetan-2-ylmethyl)-1H-benzo[d]imidazole-6-carboxylic acid]

- EC50: 0.6 nM
Structure (SMILES): O=C(O)c1ccc2nc(Cc3cc(F)c(-c4cccc(OCc5nccs5)n4)cc3F)n(C[C@@H]3CCO3)c2c1 [Example 11, (S)-2-(2,5-difluoro-4-(6-(thiazol-2-ylmethoxy)pyridin-2-yl)benzyl)-1-(oxetan-2-ylmethyl)-1H-benzo[d]imidazole-6-carboxylic acid]

- EC50: 0.689 nM
Structure (SMILES): Cc1nc(C#Cc2cnc(COc3cccc(-c4cc(F)c(Cc5nc6ccc(C(=O)O)cc6n5C[C@@H]5CCO5)cc4F)n3)c(F)c2)cs1 [Example 291, (S)-2-(2,5-difluoro-4-(6-((3-fluoro-5-((2-methylthiazol-4-yl)ethynyl)pyridin-2-yl)methoxy)pyridin-2-yl)benzyl)-1-(oxetan-2-ylmethyl)-1H-benzo[d]imidazole-6-carboxylic acid]

- EC50: 0.58 nM
Structure (SMILES): Cc1cc(Cc2nc3ccc(C(=O)O)cc3n2C[C@@H]2CCO2)c(F)cc1-c1cccc(OCc2ncc(-c3cnn(C(F)F)c3)s2)n1 [Example 331, (S)-2-(4-(6-((5-(1-(difluoromethyl)-1H-pyrazol-4-yl)thiazol-2-yl)methoxy)pyridin-2-yl)-2-fluoro-5-methylbenzyl)-1-(oxetan-2-ylmethyl)-1H-benzo[d]imidazole-6-carboxylic acid]
